According to US4345938A, “Herbicidal 2-haloacetanilides” (Monsanto Company, priority 1980, dated 1982):
Where two headings read alike, the source gives them in different places.

Experiments:
Format in all cases: in vivo
Echinochloa crus-galli [1] = assay: Greenhouse transplant rice test, EC; conditions: about 3 WAT, read-out: Percent Inhibition, EC
Text: (§1) The test procedure used in this greenhouse test is as follows: Ray silt loam top soil containing about 0.05% by weight of krillium and sifted through a […] screen is fumigated about 5-10 days prior to use. Pots are then filled with said Ray silt loam soil to a level to allow for a 1 in. (2.54 cm) flooding depth. Rice plants (Bluebelle) of 2 to 3 weeks age are transplanted to the pots and bulbs or seeds of the test weeds also planted in the pots. The pots are then flooded and the test chemical applied to the surface of the flood water. The flood water is reduced to allow for germination of the Echinochloa crus-galli (barnyardgrass) seed and subsequently reflooded and maintained in that condition. Observations of percent inhibition using a scale of 0-100% are made about 3 weeks after transplant (WAT).
(§2) The test data in Table III for all compounds was obtained under identical test conditions. The weeds used in the tests herein have the following abbreviations in the tables: Echinochloa crus-galli (EC), Monochloria vaginalis (MV), Cyperus Serotinus (CS), Eleocharis Kuroguwai (EK) and Sagittaria trifolia (ST).

Eleocharis kuroguwai [2] = assay: Field transplant rice test, applied 0 DAT, EK; conditions: 0 h, read-out: Percent Inhibition, EK; for inhibition at 375 g/ha: 0.375 Kg/Ha; for inhibition at 750 g/ha: 0.75 Kg/Ha; for inhibition at 1500 g/ha: 1.5 Kg/Ha; for inhibition at 3000 g/ha: 3.0 Kg/Ha
Procedure, shortened: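 Field test in transplanted rice, herbicide applied as granules (2.5% or 5.0% w/w active) at transplanting (0 DAT). Rates from 3.0 kg/ha down to 0.375 kg/ha. Weed control observed weekly from 2 to 6 weeks after transplant, reported at 2, 4 and 6 WAT.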

Monochoria vaginalis [3] = assay: Field transplant rice test, applied 9 DAT, MV; conditions: for inhibition at 375 g/ha / inhibition at 750 g/ha / inhibition at 1500 g/ha / inhibition at 3000 g/ha: Pontederia vaginalis, 216 h, read-out: Percent Inhibition, MV; for inhibition at 375 g/ha: 0.375 Kg/Ha; for inhibition at 750 g/ha: 0.75 Kg/Ha; for inhibition at 1500 g/ha: 1.5 Kg/Ha; for inhibition at 3000 g/ha: 3.0 Kg/Ha
Procedure, shortened: (§3)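 Field test in transplanted rice, herbicides applied as granules (2.5% or 5.0% w/w active) 9 days after transplant at 3.0 down to 0.375 kg/ha. Weed control observed weekly from 3 to 7 weeks after transplant.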

Cyperus serotinus = assay: Field transplant rice test, applied 9 DAT, CS; conditions: for inhibition at 375 g/ha / inhibition at 750 g/ha / inhibition at 1500 g/ha / inhibition at 3000 g/ha: Cyperus serotinus, 216 h, read-out: Percent Inhibition, CS; for inhibition at 375 g/ha: 0.375 Kg/Ha; for inhibition at 750 g/ha: 0.75 Kg/Ha; for inhibition at 1500 g/ha: 1.5 Kg/Ha; for inhibition at 3000 g/ha: 3.0 Kg/Ha
Procedure, shortened: as §3

Eleocharis kuroguwai [4] = assay: Field transplant rice test, applied 9 DAT, EK; conditions: for inhibition at 375 g/ha / inhibition at 750 g/ha / inhibition at 1500 g/ha / inhibition at 3000 g/ha: Eleocharis kuroguwai, 216 h, read-out: Percent Inhibition, EK; for inhibition at 375 g/ha: 0.375 Kg/Ha; for inhibition at 750 g/ha: 0.75 Kg/Ha; for inhibition at 1500 g/ha: 1.5 Kg/Ha; for inhibition at 3000 g/ha: 3.0 Kg/Ha
Procedure, shortened: as §3

Echinochloa crus-galli [5] = assay: Field transplant rice test, applied 9 DAT, EC; conditions: Echinochloa crus-galli, 216 h, read-out: Percent Inhibition, EC; for inhibition at 375 g/ha: 0.375 Kg/Ha; for inhibition at 750 g/ha: 0.75 Kg/Ha; for inhibition at 1500 g/ha: 1.5 Kg/Ha; for inhibition at 3000 g/ha: 3.0 Kg/Ha
Procedure, shortened: as §3

Monochoria vaginalis [6] = assay: Greenhouse transplant rice test, MV; conditions: Pontederia vaginalis, about 3 WAT, read-out: Percent Inhibition, MV
Text: as §1, §2

CCCCOc1cccc(CC)c1N(C)C(=O)CCl [Example 1, N-methyl-2'-n-butoxy-6'-ethyl-2-chloroacetanilide]
inhibition at 280 g/ha (Echinochloa crus-galli [1]; 0.28 Kg/Ha): 100%
inhibition at 560 g/ha (Echinochloa crus-galli [1]; 0.56 Kg/Ha): 100%
inhibition at 1120 g/ha (Echinochloa crus-galli [1]; 1.12 Kg/Ha): 100%
inhibition at 2240 g/ha (Echinochloa crus-galli [1]; 2.24 Kg/Ha): 100%
inhibition at 375 g/ha (Eleocharis kuroguwai [2]; 2 WAT): 73%
inhibition at 375 g/ha (Eleocharis kuroguwai [2]; 4 WAT): 40%
inhibition at 375 g/ha (Eleocharis kuroguwai [2]; 6 WAT): 3%
inhibition at 750 g/ha (Eleocharis kuroguwai [2]; 2 WAT): 82%
inhibition at 750 g/ha (Eleocharis kuroguwai [2]; 4 WAT): 75%
inhibition at 750 g/ha (Eleocharis kuroguwai [2]; 6 WAT): 50%
inhibition at 1500 g/ha (Eleocharis kuroguwai [2]; 2 WAT): 87%
inhibition at 1500 g/ha (Eleocharis kuroguwai [2]; 4 WAT): 83%
inhibition at 1500 g/ha (Eleocharis kuroguwai [2]; 6 WAT): 37%
inhibition at 3000 g/ha (Eleocharis kuroguwai [2]; 2 WAT): 97%
inhibition at 3000 g/ha (Eleocharis kuroguwai [2]; 4 WAT): 92%
inhibition at 3000 g/ha (Eleocharis kuroguwai [2]; 6 WAT): 65%
inhibition at 375 g/ha (Monochoria vaginalis [3]; 3 WAT): 100%
inhibition at 375 g/ha (Monochoria vaginalis [3]; 5 WAT): 100%
inhibition at 375 g/ha (Monochoria vaginalis [3]; 7 WAT): 100%
inhibition at 750 g/ha (Monochoria vaginalis [3]; 3 WAT): 100%
inhibition at 750 g/ha (Monochoria vaginalis [3]; 5 WAT): 100%
inhibition at 750 g/ha (Monochoria vaginalis [3]; 7 WAT): 100%
inhibition at 1500 g/ha (Monochoria vaginalis [3]; 3 WAT): 100%
inhibition at 1500 g/ha (Monochoria vaginalis [3]; 5 WAT): 100%
inhibition at 1500 g/ha (Monochoria vaginalis [3]; 7 WAT): 100%
inhibition at 3000 g/ha (Monochoria vaginalis [3]; 3 WAT): 100%
inhibition at 3000 g/ha (Monochoria vaginalis [3]; 5 WAT): 100%
inhibition at 3000 g/ha (Monochoria vaginalis [3]; 7 WAT): 100%
selectivity factor (GR15/GR85), MV in transplant rice (Monochoria vaginalis [3]; between 3 WAT and 7 WAT): 16
inhibition at 375 g/ha (Cyperus serotinus; 3 WAT): 100%
inhibition at 375 g/ha (Cyperus serotinus; 5 WAT): 98%
inhibition at 375 g/ha (Cyperus serotinus; 7 WAT): 97%
inhibition at 750 g/ha (Cyperus serotinus; 3 WAT): 93%
inhibition at 750 g/ha (Cyperus serotinus; 5 WAT): 93%
inhibition at 750 g/ha (Cyperus serotinus; 7 WAT): 95%
inhibition at 1500 g/ha (Cyperus serotinus; 3 WAT): 82%
inhibition at 1500 g/ha (Cyperus serotinus; 5 WAT): 100%
inhibition at 1500 g/ha (Cyperus serotinus; 7 WAT): 67%
inhibition at 3000 g/ha (Cyperus serotinus; 3 WAT): 100%
inhibition at 3000 g/ha (Cyperus serotinus; 5 WAT): 100%
inhibition at 3000 g/ha (Cyperus serotinus; 7 WAT): 100%
selectivity factor (GR15/GR85), CS in transplant rice (Cyperus serotinus; between 3 WAT and 7 WAT): 16
inhibition at 375 g/ha (Eleocharis kuroguwai [4]; 3 WAT): 80%
inhibition at 375 g/ha (Eleocharis kuroguwai [4]; 5 WAT): 52%
inhibition at 375 g/ha (Eleocharis kuroguwai [4]; 7 WAT): 15%
inhibition at 750 g/ha (Eleocharis kuroguwai [4]; 3 WAT): 83%
inhibition at 750 g/ha (Eleocharis kuroguwai [4]; 5 WAT): 68%
inhibition at 750 g/ha (Eleocharis kuroguwai [4]; 7 WAT): 13%
inhibition at 1500 g/ha (Eleocharis kuroguwai [4]; 3 WAT): 82%
inhibition at 1500 g/ha (Eleocharis kuroguwai [4]; 5 WAT): 65%
inhibition at 1500 g/ha (Eleocharis kuroguwai [4]; 7 WAT): 0%
inhibition at 3000 g/ha (Eleocharis kuroguwai [4]; 3 WAT): 93%
inhibition at 3000 g/ha (Eleocharis kuroguwai [4]; 5 WAT): 93%
inhibition at 3000 g/ha (Eleocharis kuroguwai [4]; 7 WAT): 67%
selectivity factor (GR15/GR85), EK in transplant rice (Eleocharis kuroguwai [4]; up to 5 WAT): about 2
inhibition at 375 g/ha (Echinochloa crus-galli [5]; 3 WAT): 90%
inhibition at 375 g/ha (Echinochloa crus-galli [5]; 5 WAT): 88%
inhibition at 375 g/ha (Echinochloa crus-galli [5]; 7 WAT): 78%
inhibition at 750 g/ha (Echinochloa crus-galli [5]; 3 WAT): 100%
inhibition at 750 g/ha (Echinochloa crus-galli [5]; 5 WAT): 100%
inhibition at 750 g/ha (Echinochloa crus-galli [5]; 7 WAT): 100%
inhibition at 1500 g/ha (Echinochloa crus-galli [5]; 3 WAT): 100%
inhibition at 1500 g/ha (Echinochloa crus-galli [5]; 5 WAT): 98%
inhibition at 1500 g/ha (Echinochloa crus-galli [5]; 7 WAT): 100%
inhibition at 3000 g/ha (Echinochloa crus-galli [5]; 3 WAT): 100%
inhibition at 3000 g/ha (Echinochloa crus-galli [5]; 5 WAT): 100%
inhibition at 3000 g/ha (Echinochloa crus-galli [5]; 7 WAT): 100%
inhibition at 280 g/ha (Monochoria vaginalis [6]; 0.28 Kg/Ha): 100%
inhibition at 560 g/ha (Monochoria vaginalis [6]; 0.56 Kg/Ha): 100%
inhibition at 1120 g/ha (Monochoria vaginalis [6]; 1.12 Kg/Ha): 100%
inhibition at 2240 g/ha (Monochoria vaginalis [6]; 2.24 Kg/Ha): 100%
